Measurements published in patent publication EP4667458A1 (Kanaph Therapeutics Inc., priority 2023, dated 2024).

The compounds below were run against T1, SOS1 (Homo sapiens, UniProt Q07889) (assay: SOS-catalyzed nucleotide exchange assay (HTRF, SOS1-mediated GTP loading of KRAS G12D)). Settings: GST-KRAS G12D, HIS-SOS1cat, EDA-GTP-DY-647P1; compound 128 pM to 10 µM; read-out: SOS-catalyzed nucleotide exchange assay (IC50 range, Grade).
T1 construct: adding equal amounts of HIS-SOS1cat (160 nM; Cytoskeleton, US); His; purchased Cytoskeleton, US
T1 sequence (Q07889 564-1049 limits assumed): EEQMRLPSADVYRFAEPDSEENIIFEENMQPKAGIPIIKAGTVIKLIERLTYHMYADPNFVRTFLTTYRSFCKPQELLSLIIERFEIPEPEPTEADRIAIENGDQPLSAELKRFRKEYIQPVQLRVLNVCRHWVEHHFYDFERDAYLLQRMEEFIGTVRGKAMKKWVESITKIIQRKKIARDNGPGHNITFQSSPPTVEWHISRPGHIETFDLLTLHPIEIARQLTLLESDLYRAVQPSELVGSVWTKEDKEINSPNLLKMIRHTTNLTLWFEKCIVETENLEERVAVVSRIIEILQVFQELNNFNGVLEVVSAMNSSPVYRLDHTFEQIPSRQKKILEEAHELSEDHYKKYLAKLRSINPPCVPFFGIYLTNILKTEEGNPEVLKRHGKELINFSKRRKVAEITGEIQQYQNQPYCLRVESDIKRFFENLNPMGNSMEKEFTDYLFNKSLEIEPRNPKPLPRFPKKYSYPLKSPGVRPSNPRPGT
Type: biochemical
Procedure: SOS1 activity was measured by SOS1-mediated GTP loading quantification of KRAS^G12D. GTP-loaded KRAS^G12D was detected by HTRF (Homogeneous Time Resolved Fluorescence) using anti-GST terbium (Cisbio, France) as a donor and a fluorescence GTP analogue (EDA-GTP-DY-647P1, [DY-647P1-labeled 2'/3'-O-(2-aminoethyl-carbamoyl)guanosine-5'-triphosphate (Jena bioscience, Germany)]) as an acceptor.
Assay buffer was composed of 10 mM HEPES pH 7.4, 150 mM NaCl, 5 mM MgCl2, 1 mM DTT, 0.05% BSA Fraction V pH 7.0 (Sigma) and 0.0025% (v/v) Igepal (Sigma). KRAS^G12D working solution was prepared by adding equal amounts of GST-KRAS^G12D (100 nM) and anti-GST-terbium (2 nM; Cisbio, France) to the assay buffer and incubating on ice for 10 minutes. SOS1cat working solution was prepared by adding equal amounts of HIS-SOS1cat (160 nM; Cytoskeleton, US) and EDA-GTP-DY-647P1 (200 nM; Jena bioscience, Germany) to the assay buffer. Control solution was prepared by adding equal volumes of EDA-GTP-DY-647P1 and the assay buffer for normalization control to exclude GEF-independent GTP loading and background signals. In order to induce a reaction, 5 µL of the SOS1cat working solution or the control solution was injected into each well. 5 µL of a compound having various concentrations from 128 pM to 10 µM was added to wells containing the SOS1cat working solution and incubated at room temperature for 10 minutes to bind to SOS1.
10 µL of the KRAS^G12D solution was added to each well and incubated for 30 minutes at room temperature while shaking. HTRF was measured using a Thermo Varioskan (excitation 334 nm, emission 665 nm). The IC50 of each inhibitor was analyzed using Graphad Prism.
The SOS1 inhibitory activity of the Example compounds measured by the above method was evaluated based on the following criteria, and the results are shown in Table 29.
With `C[C@@H](NC(=O)c1ccc(=O)n(-c2ccccc2)n1)c1cccc(Oc2ccccc2)c1` [Example 13, 6-oxo-N-[(1R)-1-(3-phenoxyphenyl)ethyl]-1-phenyl-pyridazine-3-carboxamide] the IC50 was under 1000 nM. With `C[C@@H](NC(=O)c1ccc(=O)n(-c2ccccc2)n1)c1cccc(C2CC2)c1` [Example 14, N-[(1R)-1-(3-cyclopropylphenyl)ethyl]-6-oxo-1-phenyl-pyridazine-3-carboxamide] the IC50 was 1000 to 10000 nM. For `C[C@@H](NC(=O)c1ccc(=O)n(-c2ccccc2)n1)c1cccc(C(F)(F)F)c1` [Example 15, 6-oxo-1-phenyl-N-[(1R)-1-[3-(trifluoromethyl)phenyl]ethyl]pyridazine-3-carboxamide], the IC50 was under 1000 nM. For `C[C@@H](NC(=O)c1ccc(=O)n(-c2ccccc2)n1)c1cc(N)cc(C(F)(F)F)c1` [Example 16, N-[(1R)-1-[3-amino-5-(trifluoromethyl)phenyl]ethyl]-6-oxo-1-phenyl-pyridazine-3-carboxamide], the IC50 was under 1000 nM. For `C[C@@H](NC(=O)c1ccc(=O)n(C2CCOCC2)n1)c1cccc(Cl)c1` [Example 17, N-[(1R)-1-(3-chlorophenyl)ethyl]-6-oxo-1-tetrahydropyran-4-yl-pyridazine-3-carboxamide], the IC50 was 1000 to 10000 nM. In the case of `CC(=O)N1CCC(n2nc(C(=O)N[C@H](C)c3cccc(Cl)c3)ccc2=O)CC1` [Example 18, 1-(1-acetyl-4-piperidyl)-N-[(1R)-1-(3-chlorophenyl)ethyl]-6-oxo-pyridazine-3-carboxamide], the IC50 is reported as 1000 to 10000 nM. Compound `C[C@@H](NC(=O)c1ccc(=O)n(C2CCN(S(C)(=O)=O)CC2)n1)c1cccc(Cl)c1` [Example 19, (R)-N-(1-(3-chlorophenyl)ethyl)-1-(1-(methylsulfonyl)piperidin-4-yl)-6-oxo-1,6-dihydropyridazine-3-carboxamide] has an IC50 of 1000 to 10000 nM. `C[C@@H](NC(=O)c1ccc(=O)n(-c2ccccn2)n1)c1cc(N)cc(C(F)(F)F)c1` [Example 20, N-[(1R)-1-[3-amino-5-(trifluoromethyl)phenyl]ethyl]-6-oxo-1-(2-pyridyl)pyridazine-3-carboxamide] gave an IC50 of under 1000 nM. `C[C@@H](NC(=O)c1ccc(=O)n(-c2ccncc2)n1)c1cc(N)cc(C(F)(F)F)c1` [Example 21, N-[(1R)-1-[3-amino-5-(trifluoromethyl)phenyl]ethyl]-6-oxo-1-(4-pyridyl)pyridazine-3-carboxamide] showed an IC50 of under 1000 nM. In the case of `Cc1ccc(-n2nc(C(=O)N[C@H](C)c3cc(N)cc(C(F)(F)F)c3)ccc2=O)s1` [Example 22, N-[(1R)-1-[3-amino-5-(trifluoromethyl)phenyl]ethyl]-1-(5-methyl-2-thienyl)-6-oxo-pyridazine-3-carboxamide], the IC50 is reported as under 1000 nM. Compound `COc1ccccc1-n1nc(C(=O)N[C@H](C)c2cc(N)cc(C(F)(F)F)c2)ccc1=O` [Example 23, N-[(1R)-1-[3-amino-5-(trifluoromethyl)phenyl]ethyl]-1-(2-methoxyphenyl)-6-oxo-pyridazine-3-carboxamide] has an IC50 of under 1000 nM. Compound `C[C@@H](NC(=O)c1ccc(=O)n(-c2cccc3ccccc23)n1)c1cc(N)cc(C(F)(F)F)c1` [Example 25, (R)-N-(1-(3-amino-5-(trifluoromethyl)phenyl)ethyl)-1-(naphthalen-1-yl)-6-oxo-1,6-dihydropyridazine-3-carboxamide] has an IC50 of under 1000 nM. Work on `C[C@@H](NC(=O)c1ccc(=O)n(-c2cccnc2)n1)c1cc(N)cc(C(F)(F)F)c1` [Example 26, (R)-N-(1-(3-amino-5-(trifluoromethyl)phenyl)ethyl)-6-oxo-1-(pyridin-3-yl)-1,6-dihydropyridazine-3-carboxamide] yielded an IC50 of under 1000 nM. `Cc1cc(-n2nc(C(=O)N[C@H](C)c3cc(N)cc(C(F)(F)F)c3)ccc2=O)cs1` [Example 27, (R)-N-(1-(3-amino-5-(trifluoromethyl)phenyl)ethyl)-1-(5-methylthiophen-3-yl)-6-oxo-1,6-dihydropyridazine-3-carboxamide] gave an IC50 of under 1000 nM. With `C[C@@H](NC(=O)c1ccc(=O)n(-c2ccccc2S(C)(=O)=O)n1)c1cc(N)cc(C(F)(F)F)c1` [Example 28, (R)-N-(1-(3-amino-5-(trifluoromethyl)phenyl)ethyl)-1-(2-(methylsulfonyl)phenyl)-6-oxo-1,6-dihydropyridazine-3-carboxamide] the IC50 was over 10000 nM. `C[C@@H](NC(=O)c1ccc(=O)n(-c2ccccc2C#N)n1)c1cc(N)cc(C(F)(F)F)c1` [Example 29, N-[(1R)-1-[3-amino-5-(trifluoromethyl)phenyl]ethyl]-1-(2-cyanophenyl)-6-oxo-pyridazine-3-carboxamide] showed an IC50 of under 1000 nM. Work on `COc1ccc(-n2nc(C(=O)N[C@H](C)c3cc(N)cc(C(F)(F)F)c3)ccc2=O)cc1` [Example 30, N-[(1R)-1-[3-amino-5-(trifluoromethyl)phenyl]ethyl]-1-(4-methoxyphenyl)-6-oxo-pyridazine-3-carboxamide] yielded an IC50 of under 1000 nM. `C[C@@H](NC(=O)c1ccc(=O)n(-c2cccc(C(=O)N(C)C)c2)n1)c1cc(N)cc(C(F)(F)F)c1` [Example 31, (R)-N-(1-(3-amino-5-(trifluoromethyl)phenyl)ethyl)-1-(3-(dimethylcarbamoyl)phenyl)-6-oxo-1,6-dihydropyridazine-3-carboxamide] gave an IC50 of under 1000 nM. `C[C@@H](NC(=O)c1ccc(=O)n(-c2ccccc2Cl)n1)c1cc(N)cc(C(F)(F)F)c1` [Example 32, (R)-N-(1-(3-amino-5-(trifluoromethyl)phenyl)ethyl)-1-(2-chlorophenyl)-6-oxo-1,6-dihydropyridazine-3-carboxamide] was tested, and the IC50 was under 1000 nM. `C[C@@H](NC(=O)c1ccc(=O)n(-c2ccccc2NS(C)(=O)=O)n1)c1cc(N)cc(C(F)(F)F)c1` [Example 33, N-[(1R)-1-[3-amino-5-(trifluoromethyl)phenyl]ethyl]-1-[2-(methanesulfonamido)phenyl]-6-oxo-pyridazine-3-carboxamide] gave an IC50 of under 1000 nM. `C[C@@H](NC(=O)c1ccc(=O)n(-c2cccc(NS(C)(=O)=O)c2)n1)c1cc(N)cc(C(F)(F)F)c1` [Example 34, (R)-N-(1-(3-amino-5-(trifluoromethyl)phenyl)ethyl)-1-(3-(methylsulfonamido)phenyl)-6-oxo-1,6-dihydropyridazine-3-carboxamide] gave an IC50 of 1000 to 10000 nM. Compound `CC(=O)Nc1cccc(-n2nc(C(=O)N[C@H](C)c3cc(N)cc(C(F)(F)F)c3)ccc2=O)c1` [Example 35, (R)-1-(3-acetamidophenyl)-N-(1-(3-amino-5-(trifluoromethyl)phenyl)ethyl)-6-oxo-1,6-dihydropyridazine-3-carboxamide] has an IC50 of under 1000 nM. Compound `COc1ccc(-n2nc(C(=O)N[C@H](C)c3cc(N)cc(C(F)(F)F)c3)ccc2=O)cc1OC` [Example 36, N-[(1R)-1-[3-amino-5-(trifluoromethyl)phenyl]ethyl]-1-(3,4-dimethoxyphenyl)-6-oxo-pyridazine-3-carboxamide] has an IC50 of under 1000 nM. `C[C@@H](NC(=O)c1ccc(=O)n(-c2cccc(S(C)(=O)=O)c2)n1)c1cc(N)cc(C(F)(F)F)c1` [Example 37, N-[(1R)-1-[3-amino-5-(trifluoromethyl)phenyl]ethyl]-1-(3-methylsulfonylphenyl)-6-oxo-pyridazine-3-carboxamide] showed an IC50 of under 1000 nM. With `COc1ccccc1-n1nc(C(=O)N[C@H](C)c2cccc(C(F)(F)CO)c2)ccc1=O` [Example 38, N-[(1R)-1-[3-(1,1-difluoro-2-hydroxyethyl)phenyl]ethyl]-1-(2-methoxyphenyl)-6-oxo-pyridazine-3-carboxamide] the IC50 was under 1000 nM.
